One experiment concerns arrestin-1 (F85A, F197A). The experiment is described as follows: Limited trypsin digestion of arrestin-1 in presence of peptide. Particulars: arrestin:peptide 1:1.2, 35 °C, SDS PAGE. Format: biochemical, bovine. The text has this: Synthesized cDNAs of bovine arrestin-1, human arrestin-2 and human arrestin-3 were ordered from Genewiz, amplified by PCR and cloned (Supplementary Information Table 5) into the pET-15b vector (Novagen), using the Gibson Assembly protocol. The constructs contained an N-terminal hexa histidine tag linked by a linker that contained a Tobacco Etch Virus cleavage site (TEV; […]). PCR was used to introduce the monomerizing arrestin-1 mutations (F85A, F197A)[58]. Note that this mutant was employed for fluorescence anisotropy, trypsin digestion, and NMR experiments. Wild-type arrestin-2 and -3 were used for fluorescence anisotropy and trypsin digestion experiments. […] The arrestin-1 in this construct had the wild-type sequence. Note that this construct differs slightly from that previously published[59],[60] and was optimized for purification. We verified the functionality of this fusion construct using the standard centrifugal pull-down assay using phosphorylated rhodopsin in native ROS membranes.
Arrestin (60 µg) was mixed at a 1 to 1.2 molar ratio with peptide and preincubated at RT for 5 min before 1 μl of 0.15 mg/ml trypsin stock was added. The enzymatic digestion was carried out at 35 °C (20 mM Bis-Tris propane pH 7.0, 150 mM NaCl, 10 mM 2‑Mercaptoethanol and 2 mM EDTA). At certain time points (5, 15, 30, 60, 90 min), 5 μl aliquots were quenched with heat incubation in the presence of 20 μl SDS loading buffer (95 °C, 5 min) and then subjected to SDS PAGE. Bands were visualized with InstantBlue (Expedeon).

A further experiment deals with arrestin-1. The experiment is described as follows: [15N,1H]TROSY NMR titration of arrestin-1 with peptide. Particulars: peptide:arrestin-1 up to 10:1. The experiment is classed as binding, bovine. As to the method: ^2H,^15N,^13C-labeled arrestin-1 aliquots were thawed quickly under running water, transferred to 30 kDa-cutoff Vivaspin (0.5 ml, Sartorius) centrifugal spin concentrators, and concentrated to approximately 600 μM. The concentrator was immediately transferred into a beaker filled with 400 ml of NMR buffer 1 or 2 (see below) carried by a floatation device. The dialysis was performed at 4 °C overnight. On the next day the concentration was determined by UV absorbance at 280 nm (molar extinction coefficient 26,360/mol/cm). […] The dialysis was performed at 4 °C overnight, and the peptide concentration was determined by its absorbance at 205 nm (molar extinction coefficient: 54,310/mol/cm). […]
NMR measurements were performed on Bruker Avance III-HD 600 or 900 MHz spectrometer using a CTCI cryo-cooled probehead. […] Pulse lengths were calibrated for ^1H manually and for ^13C/^15N using an in-house automated procedure. pH was monitored using the position of the phosphate signal in NMR buffer 2 as an internal reference and varied by no more than 0.03 pH units during peptide titration experiments. [^15N,^1H]TROSY experiments were recorded with internal ETH pulse sequences, whereas 3D triple resonance TROSY experiments were recorded using the manufacturer’s pulse sequences. […]

In the case of “CDDEASTTVSKTETSQVAPA [5P, multiply phosphorylated rhodopsin C-terminus peptide lacking key site pS343]”, the “limited trypsin digest pattern of arrestin-1 (conformational change, C-tail displacement)” value in the experiment with arrestin-1 (F85A, F197A) is on record as “inability to induce conformational changes”. The “NMR chemical shift / peak changes in arrestin-1 (in words)” value with arrestin-1 is reported as “minimal chemical shift changes”.

Values taken from paper PMC6424980, “Distinct G protein-coupled receptor phosphorylation motifs modulate arrestin affinity and activation and global conformation” (Nature Communications, 2019).
